Measured values: patent US20250188085A1, “COMPOSITIONS AND METHODS FOR INHIBITION OF RAS” (THERAS, INC., priority 2022, published 2025)
pIC50: −log10 of the molar value. Where two headings read alike, the source gives them in different places.

What was measured:
[1] = molecular target: T1, GppNHp-loaded KRAS4b (amino acids 1-169) G12C/C118S protein (Homo sapiens, UniProt P01116, C118S/G12C); assay: Covalent cysteine 12 modification by MALDI-TOF MS, GppNHp-loaded KRAS G12C; assay type: binding; conditions: 15 minutes reaction time point
T1 construct: KRAS4b (amino acids 1-169) G12C/C118S protein; made in house
Experimental: (§1) Reaction: 1 μM of GppNHp-, GTP-, or GDP-loaded KRAS4b (amino acids 1-169) G12C/C118S protein (produced in-house by Protein Expression Laboratory, FNLCR/Leidos Biomed) in 20 mM 4-(2-hydroxyethyl)-1-piperazineethanesulfonic acid (HEPES) buffer containing 150 mM NaCl, 1 mM MgCl2, pH 7.3 was prepared freshly before assay. Ten-μL aliquots of protein were dispensed onto low volume 384-well plate, then 375 nL DMSO, and 25 nL of tested compounds from 5 mM DMSO stocks were added to appropriate wells using ECHO 555 acoustic liquid handler (Labcyte Inc.). For each reaction/assay, three blanks were prepared by mixing 10 μL of protein solution with 400 nL DMSO. The contents of the wells were carefully mixed by aspiration, and then each plate was sealed with an adhesive cover, centrifuged at 2000 g for 1 minute, and kept in the dark at room temperature until 5 min, 15 min, 30 min, or 2 h collections.
(§2) Target pretreatment: Before each assay MALDI target (Bruker MPT 384 ground steel BC) was pre-treated by pipetting on each spot 0.75 μL of saturated sinapinic acid in acetonitrile (ACN).
(§3) Sample preparation: At collection time point, 2 μL of reaction mixtures were pipetted out into 20 μL MALDI matrix solution (saturated solution of sinapinic acid in 1:1 ACN:water solution containing 0.75% trifluoroacetic acid (TFA)) deposited on 384 well polypropylene plate. Resulting solution was mixed by aspiration, centrifuged at 2000 g for 1 minute, then 1 μL aliquots were dispensed on pre-treated MALDI target using Beckman Coulter Biomek FXP 96/384-Span-8 Laboratory Automation Workstation. Finally, the MALDI target was dried under mild vacuum to produce spots with fine crystalline structure.
(§4) Measurements: MALDI-TOF measurements were performed on a Bruker Daltonics rapiflex Tissuetyper TOF-TOF mass spectrometer using linear mode and mass range from 18.6 to 21.6 kDa. Detector gain was set to 3.3× (483 V), sample rate to 5 GS/s, real time smoothing to medium (175 MHz), laser smart beam pattern was set to: “MS Thin Layer M5”, and the laser frequency was 10000 Hz. Spectra were automatically collected using custom Auto Xecute method. Laser power was auto adjusted using fuzzy control. The peak selection range was set to be between 19000 and 21500 Da. Peak evaluation uses half width parameter set to be smaller than 40 Da for processed spectrograms (centroid peak detection; smoothed by SavitzkyGolay algorithm using 7 m/z width and 2 cycles; baseline was subtracted using median algorithm with flatness 1 and median level 0.01). Fuzzy control used Proteins/Oligonucleotides protocol with minimum half width 1/10 times above threshold. Up to 40000 satisfactory shots were collected in 10000 shot steps. Dynamic termination was implemented to finish data collection when peak signal/noise ratio was reaching value of 50.
(§5) Spectra processing: Spectra were smoothed by SavitzkyGolay algorithm using 7 m/z width and three cycles. Centroid peak detection algorithm was used with signal to noise threshold set to 6, relative intensity threshold 4%, peak width 10 m/z and median baseline subtraction using flatness of 1 and median level of 0.01. Peak intensity and area under the peak were evaluated and recorded for all peaks between 19,300 Da and 21,550 Da.
(§6) Calculation of percent modification: Percent modification was calculated as a ratio of peak height for protein modified by compound to sum of peak height of remaining protein plus peak height for protein modified by compound. If multiple modifications were observed each was calculated as a ratio of peak height for given modification versus sum of peak heights for all observed protein species. Data reported in Table 5 are from 15 minutes reaction time point.

[2] = molecular target: T2, GDP-loaded KRAS4b (amino acids 1-169) G12C/C118S protein (Homo sapiens, UniProt P01116, C118S/G12C); assay: Covalent cysteine 12 modification by MALDI-TOF MS, GDP-loaded KRAS G12C; assay type: binding; conditions: 15 minutes reaction time point
T2 construct: KRAS4b (amino acids 1-169) G12C/C118S protein; made in house
Experimental: as §1, §2, §3, §4, §5, §6

[3] = molecular target: T3, Avi-KRAS G12C (1-169) GppNHp/RAF1 RBD-3×FLAG (52-151) (Homo sapiens, UniProt P01116, G12C); assay: Raf1 RBD-KRAS G12C-GppNHp disruption (protein:protein interaction HTRF assay); assay type: biochemical
T3 construct: Avi-KRAS G12C (1-169) GppNHp/RAF1 RBD-3×FLAG (52-151)
Experimental: A protein: protein (PPI) interaction Homogeneous Time Resolved Fluorescence (HTRF) assay was used to determine the effectiveness of compounds of the present disclosure in disrupting KRAS G12C protein and effector (RAF1 or PIK3CA) binding.
The HTRF assay used the following reagents and proteins: 50 nM Avi-KRAS G12C Q25A (1-169) GppNHp/3×FLAG-PI3K CA (157-299); 50 nM Avi-KRAS G12C (1-169) GppNHp/RAF1 RBD-3×FLAG (52-151); 35 nM Avi-PI3K RBD-3×FLAG; Assay Buffer: 50 mM Tris pH 7.5, 100 mM NaCl, 5 mM MgCl2, 0.1% BSA, 0.01% Tween 20, 10% DMSO; Bead Buffer: 50 mM Tris pH 7.5, 0.01% Tween 20; Assay volume: 20 μL (384 well plate-low volume format); and Compound titration: 30-0.02 μM, 3× dilution series.
The HTRF assay employed the following protocol:
Compounds were dispensed in assay plate (384-well, Grenier Bione #784075) using Echo (model 555) with dose response settings: 200 nL final volume, titration from 100 μM as a 10-point dilution series. KRAS proteins were prepared in assay buffer, and dispensed on plates, 5 μL per well, then incubated for 1 h at room temperature, with 700 rpm shaking. RAF1 RBD and PI3K RBD CA were prepared in assay buffer, dispensed onto plates, 5 μL per well, and then incubated for 1 h at room temperature, with 700 rpm shaking. Reagent mix was then prepared and dispensed on plates, 10 μL per well, and then incubated for 1 h at room temperature, with 700 rpm shaking.
Plates were analyzed on an Envision plate reader using the following setting: Excitation 320 nm, Bandwidth 75 nm; Emission 615 nm, Bandwidth 85 nm; Gain 100%; Flashes 100; Lag 60 μs. Data was reported as percentage of activity, with DMSO as 100%. Data was plotted and analyzed using Prism 8.

[4] = system: pERK in NCI-H358 cells; assay: Cell-based pERK HTRF assay; conditions: 30 min incubation, read-out: pERK in NCI-H358 cell inhibition IC50
Experimental: pERK assays (Perkin Elmer) were used to determine the effectiveness of compounds of the present disclosure in disrupting KRAS G12C protein/effector signaling in cells.
On Day 1, cells (NCI-H358) were seeded into 96-well plates at 4×10^4 cells/well in complete growth media (RPMI, 10% FBS).
On Day 2, cells were treated with compounds at 0.25% DMSO. The source plate was created with compounds diluted in media at 5-fold the final assay concentration. The compounds were run in a 9-point concentration curve starting at 75 μM, with a 3-fold dilution between concentrations. 20 μL was transferred onto the cell plates (final volume in wells was 100 μL). Plates were harvested after 30 min incubation by aspirating media and adding kit-supplied 1× supplemented lysis buffer to all wells (75 μl per well). Plates were then placed on a plate shaker and incubated at 850 rpm for an additional 30 min.
Antibody mixture solution was prepared by diluting aliquoted d2 and Eu Cryptate antibodies 1:20 in kit supplied detection buffer, then mixed the diluted antibodies solutions (1:1 v:v). 4 μL of this solution was then added to a 384-well detection plate (Perkin Elmer; 6008230).
Samples were homogenized by pipetting up and down and then transferred (16 μL of cell lysates) from the 96-well cell culture plate to two wells of the HTRF 384-well detection plate containing the antibody solution. Plates were centrifuged (524 g for Imin) and allowed to incubate between 4 and 24 h at room temperature. Maximum signal is reached after 4 h incubation time and remains stable over a period of 24 hours. Therefore, readings can be made between 4 and 24 h of incubation. Plates were centrifuged again (524 g for Imin) and analyzed on the En Vision plate reader using the following settings: Excitation 320 nm, Bandwidth 75 nm; Emission 615 nm, Bandwidth 85 nm; Gain 100%; Flashes 100; Lag 60 μs.

Structure (SMILES) | GppNHp-KRAS G12C percent of modification [1] | GDP-KRAS G12C percent of modification [2] | pIC50 [3] | pIC50 ([4]; Homo sapiens, NCI-H358, 0.5 h) | pIC50 [4]
C=CC(=O)N1CC[C@@H](Oc2nc(OC[C@@H]3CCCN3C)nc3c(F)c(-c4ccc(F)c5sc(N)nc45)c(C(F)(F)F)cc23)C1 [Compound 13] | B (50≤percent of modification <70%) | A (percent of modification ≥70%) | ≥ 6.30 | 6.00 to 7.00 | –
C=CC(=O)N1CC[C@@H](Oc2nc(OC[C@@H]3CC(C)(C)CN3C)nc3c(F)c(-c4ccc(F)c5sc(N)nc45)c(C(F)(F)F)cc23)C1 (atropisomer, axis not shown) [Compound 17] | D (percent of modification <10%) | D (percent of modification <10%) | < 4.70 | – | < 6.00
CC#CC(=O)N1CC(Oc2nc(OC[C@@H]3CCCN3C)nc3c(F)c(-c4ccc(F)c5sc(N)nc45)c(Cl)cc23)C1 [Compound 2] | D (percent of modification <10%) | B (50≤percent of modification <70%) | 5.30 to 6.30 | 6.00 to 7.00 | –
C=CC(=O)N1CC[C@H](Oc2nc(OC[C@@]34CCCN3C[C@H](F)C4)nc3c(F)c(-c4ccc(F)c5sc(N)nc45)c(C(F)(F)F)cc23)C1 (atropisomer, axis not shown) [Compound 5] | D (percent of modification <10%) | D (percent of modification <10%) | 4.70 to 5.30 | – | < 6.00
C=CC(=O)N1CC[C@@H](Oc2nc(OC[C@@H]3C[C@@H](OC)CN3C)nc3c(F)c(-c4ccc(F)c5sc(N)nc45)c(C(F)(F)F)cc23)C1 (single isomer, unassigned) [Compound 14] | B (50≤percent of modification <70%) | A (percent of modification ≥70%) | ≥ 6.30 | – | ≥ 7.00
C=CC(=O)N1CC[C@@H](Oc2nc(OC[C@@]34CCCN3C[C@H](F)C4)nc3c(F)c(-c4ccc(F)c5sc(N)nc45)c(Cl)cc23)C1 (atropisomer, axis not shown) [Compound 10] | D (percent of modification <10%) | D (percent of modification <10%) | 5.30 to 6.30 | – | 6.00 to 7.00
C=CC(=O)N1C[C@H](Oc2nc(OC[C@@]34CCCN3C[C@H](F)C4)nc3c(F)c(-c4ccc(F)c5sc(N)nc45)c(C(F)(F)F)cc23)[C@@H](F)C1 [Compound 28, 1-((3S,4S)-3-((7-(2-amino-7-fluorobenzo[d]thiazol-4-yl)-8-fluoro-2-(((2R,7aS)-2-fluorotetrahydro-1H-pyrrolizin-7a (5H)-yl)methoxy)-6-(trifluoromethyl)quinazolin-4-yl)oxy)-4-fluoropyrrolidin-1-yl) prop-2-en-1-one] | A (percent of modification ≥70%) | A (percent of modification ≥70%) | ≥ 6.30 | ≥ 7.00 | –
C=CC(=O)N1CC[C@@H](Oc2nc(OC[C@@H]3CC4(CC4)CN3C)nc3c(F)c(-c4ccc(F)c5sc(N)nc45)c(C(F)(F)F)cc23)C1 (atropisomer, axis not shown) [Compound 24] | B (50≤percent of modification <70%) | A (percent of modification ≥70%) | ≥ 6.30 | – | ≥ 7.00
C=CC(=O)N1CC(Oc2nc(OC[C@@]34CCCN3C[C@H](F)C4)nc3c(F)c(-c4ccc(F)c5sc(N)nc45)c(C(F)(F)F)cc23)C1 [Compound 7, 1-(3-((7-(2-amino-7-fluorobenzo[d]thiazol-4-yl)-8-fluoro-2-(((2R,7aS)-2-fluorotetrahydro-1H-pyrrolizin-7a (5H)-yl)methoxy)-6-(trifluoromethyl)quinazolin-4-yl)oxy)azetidin-1-yl) prop-2-en-1-one] | D (percent of modification <10%) | D (percent of modification <10%) | < 4.70 | < 6.00 | –
